Measured values published in patent publication US20190357555A1, “BLUEBERRY FRESH-KEEPING AGENT, PREPARATION METHOD AND APPLICATIONS THEREOF” (ZHEJIANG ACADEMY OF AGRICULTURAL SCIENCES, priority 2018, published 2019).

System: Botrytis cinerea
Assay: Filter-paper inhibition zone test against Botrytis cinerea
Assay type: cell-based
Details: PDA, 28° C., 6 days; for inhibition zone diameter: filter paper 1 cm soaked 4 hours; for inhibitory effect on Botrytis cinerea (in words): filter paper test
Protocol: Test species and reagents: Botrytis cinerea was isolated from the picked blueberries in the laboratory, and chitosan and ascorbic acid were purchased commercially.
Medium and culture conditions: a PDA medium was used, and cultured at 28° C. for 6 days.
Antibacterial effect test: after Botrytis cinerea was activated with the PDA medium, lawn of Botrytis cinerea was picked up and suspended with sterile water to obtain a bacterial suspension. Scraps of filter paper with a diameter of 1 cm were made from a highly absorbent filter paper by using a puncher, and the scraps of filter paper were subjected to dry heat sterilization and soaked in the Galla chinensis extract, a chitosan solution, and an ascorbic acid solution, respectively, and dried for use after 4 hours soaking. The solid PDA medium was melted, poured into a culture dish, cooled and solidified, then 0.1 mL of the bacterial suspension was added and uniformly coated, and then the scraps of filter paper soaked with the above solutions were attached to the bacteria-containing culture dish, and a scrap of filter paper impregnated with sterile water was used as a control. The culture dish treated above was cultured at 28° C. for 6 days, and the diameters of inhibition zones were measured.

`O=C1O[C@H]([C@@H](O)CO)C(O)=C1O` [ascorbic acid] was tested, and the inhibition zone diameter was 0.00 mm and the “inhibitory effect on Botrytis cinerea (in words)” value was “no inhibitory effect”.
In the case of `O=C(O)c1cc(O)c(O)c(O)c1` [gallic acid], the inhibition zone diameter is reported as 0.00 mm and the “inhibitory effect on Botrytis cinerea (in words)” value is reported as “no inhibitory effect”.
